From patent publication US9546164B2 (GENENTECH, INC., priority 2013, dated 2017) come the findings set out here.

Where a name gives a salt, the structure may show the parent alone.

Sequence of hNav1.7 (Q15858 other isoform, or with tags, fused parts or gaps): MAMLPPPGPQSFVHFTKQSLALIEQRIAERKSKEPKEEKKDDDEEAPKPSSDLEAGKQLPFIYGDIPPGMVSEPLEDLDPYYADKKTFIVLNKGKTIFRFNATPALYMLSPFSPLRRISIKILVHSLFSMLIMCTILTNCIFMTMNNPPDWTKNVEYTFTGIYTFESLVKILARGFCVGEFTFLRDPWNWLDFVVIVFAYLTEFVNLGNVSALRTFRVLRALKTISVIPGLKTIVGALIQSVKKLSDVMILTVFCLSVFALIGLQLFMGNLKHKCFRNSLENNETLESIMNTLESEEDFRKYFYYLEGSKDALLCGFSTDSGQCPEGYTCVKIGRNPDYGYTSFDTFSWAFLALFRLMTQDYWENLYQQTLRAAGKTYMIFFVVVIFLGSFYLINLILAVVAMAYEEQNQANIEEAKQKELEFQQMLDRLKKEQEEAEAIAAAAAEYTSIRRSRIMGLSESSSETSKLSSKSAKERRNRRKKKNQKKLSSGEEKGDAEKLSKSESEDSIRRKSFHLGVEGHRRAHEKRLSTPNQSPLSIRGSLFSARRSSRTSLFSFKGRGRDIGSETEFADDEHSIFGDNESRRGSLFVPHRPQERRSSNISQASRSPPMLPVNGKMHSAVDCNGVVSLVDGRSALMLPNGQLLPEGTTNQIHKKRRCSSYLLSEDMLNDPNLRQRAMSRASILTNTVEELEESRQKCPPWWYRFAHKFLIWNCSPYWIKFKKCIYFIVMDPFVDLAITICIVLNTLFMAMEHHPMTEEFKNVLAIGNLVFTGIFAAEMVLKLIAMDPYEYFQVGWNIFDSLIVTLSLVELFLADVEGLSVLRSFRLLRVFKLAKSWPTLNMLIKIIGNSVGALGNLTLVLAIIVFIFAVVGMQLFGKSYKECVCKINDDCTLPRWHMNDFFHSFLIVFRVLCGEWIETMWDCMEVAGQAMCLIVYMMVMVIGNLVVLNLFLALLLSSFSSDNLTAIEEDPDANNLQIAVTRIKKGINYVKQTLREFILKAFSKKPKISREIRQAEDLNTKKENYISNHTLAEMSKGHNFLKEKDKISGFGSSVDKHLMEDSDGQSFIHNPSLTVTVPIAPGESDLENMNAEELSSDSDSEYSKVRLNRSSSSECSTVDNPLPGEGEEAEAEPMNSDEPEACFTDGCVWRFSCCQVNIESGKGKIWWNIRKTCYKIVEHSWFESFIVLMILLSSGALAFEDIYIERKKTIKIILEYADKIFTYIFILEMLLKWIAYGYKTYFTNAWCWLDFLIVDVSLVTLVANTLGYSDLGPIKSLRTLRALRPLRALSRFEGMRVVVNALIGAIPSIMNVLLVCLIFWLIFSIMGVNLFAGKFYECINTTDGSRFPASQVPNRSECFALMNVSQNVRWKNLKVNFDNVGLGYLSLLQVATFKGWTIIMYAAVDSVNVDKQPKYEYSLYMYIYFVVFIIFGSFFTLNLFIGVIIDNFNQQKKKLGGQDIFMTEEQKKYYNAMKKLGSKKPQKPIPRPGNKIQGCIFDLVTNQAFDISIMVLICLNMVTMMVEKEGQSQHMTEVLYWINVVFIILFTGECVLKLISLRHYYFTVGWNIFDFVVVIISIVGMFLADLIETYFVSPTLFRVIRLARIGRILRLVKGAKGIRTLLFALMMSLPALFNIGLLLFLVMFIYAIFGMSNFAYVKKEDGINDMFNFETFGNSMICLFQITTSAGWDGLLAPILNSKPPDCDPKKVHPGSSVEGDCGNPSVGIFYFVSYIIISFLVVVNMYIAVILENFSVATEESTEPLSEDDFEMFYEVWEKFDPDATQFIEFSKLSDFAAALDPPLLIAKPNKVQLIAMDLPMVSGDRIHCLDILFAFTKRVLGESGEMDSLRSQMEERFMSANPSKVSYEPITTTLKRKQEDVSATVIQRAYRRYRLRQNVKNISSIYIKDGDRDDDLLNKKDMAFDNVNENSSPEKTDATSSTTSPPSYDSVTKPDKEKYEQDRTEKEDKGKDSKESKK
Sequence of hNav1.7 (Q07699 19-218 partner): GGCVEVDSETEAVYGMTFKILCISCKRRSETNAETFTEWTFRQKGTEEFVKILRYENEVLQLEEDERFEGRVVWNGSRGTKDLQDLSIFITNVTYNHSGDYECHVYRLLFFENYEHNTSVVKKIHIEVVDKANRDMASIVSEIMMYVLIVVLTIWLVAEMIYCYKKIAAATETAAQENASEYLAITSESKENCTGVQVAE

One assay has as its target hNav1.7 (Homo sapiens (Human), UniProt Q15858). Put plainly: Tritiated sulfonamide competitive binding to membranes from cells expressing hNav1.7 and the β1 subunit.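 Also: Filter-bound radioactivity counted by liquid scintillation, nonspecific binding defined with excess unlabelled ligand, IC50 fitted to percent inhibition of specific binding.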
Details: not given
`CS(=O)(=O)NC(=O)c1cc(C2CC2)c(O[C@@H]2CCCN(Cc3ccc(Cl)cc3Cl)C2)cc1F` [Example 29, (R)-5-cyclopropyl-4-((1-(2,4-dichlorobenzyl)piperidin-3-yl)oxy)-2-fluoro-N-(methylsulfonyl)benzamide] registered an IC50 of 1.7 nM.

Compound `CS(=O)(=O)NC(=O)c1cc(C2CC2)c(CN2CCC(Oc3ncc(C(F)(F)F)cc3Cl)CC2)cc1F` [Example 523, 4-((4-((3-chloro-5-(trifluoromethyl)pyridin-2-yl)oxy)piperidin-1-yl)methyl)-5-cyclopropyl-2-fluoro-N-(methylsulfonyl)benzamide, trifluoroacetic acid salt] had an IC50 of 5.8 nM.

With `CS(=O)(=O)NC(=O)c1cc(C2CC2)c(OCC2CCN(Cc3cc(Cl)cc(C#N)c3)CC2)cc1F` [Example 590, 4-((1-(3-chloro-5-cyanobenzyl)piperidin-4-yl)methoxy)-5-cyclopropyl-2-fluoro-N-(methylsulfonyl)benzamide], the IC50 stood at 26 nM.

On to `O=C(NS(=O)(=O)C1CC1)c1cc(C2CC2)c(O[C@@H]2CCCN(Cc3ccc(F)cc3C(F)(F)F)C2)cc1F` [Example 35], for which the IC50 was found to be 2.4 nM.

For `O=C(NS(=O)(=O)C1CC1)c1cc(C2CC2)c(CN2CCC(Sc3cc(Cl)cc(Cl)c3)CC2)cc1F` [Example 531, 5-cyclopropyl-N-(cyclopropylsulfonyl)-4-((4-((3,5-dichlorophenyl)thio)piperidin-1-yl)methyl)-2-fluorobenzamide, trifluoroacetic acid salt], the IC50 is 2.2 nM.

The assay is the same for the next values; noted with them: read-out: Ligand Binding Assay; 100 pM [3H]compound, membranes with hNav1.7 and β1 subunit, 18 h, room temperature.
Turning to `CS(=O)(=O)NC(=O)c1cc(C2CC2)c(OCC2CCN([C@@H]3c4ccccc4C[C@H]3O)CC2)cc1F` [Example 200, 5-Cyclopropyl-2-fluoro-4-((1-((1R,2R)-2-hydroxy-2,3-dihydro-1H-inden-1-yl)piperidin-4-yl)methoxy)-N-(methylsulfonyl)benzamide], the IC50 was 9400 nM.

With `C[C@H](c1cc(Cl)cc(C(F)(F)F)c1)N1CCC(COc2cc(F)c(C(=O)NS(C)(=O)=O)cc2C2CC2)CC1` (single isomer, unassigned) [Example 276], the IC50 worked out at 5.7 nM.

For the compound `CCS(=O)(=O)NC(=O)c1cc(C2CC2)c(OCC2(C)CN(C(c3ccccc3)c3ccccc3)C2)cc1F` [Example 69, 4-((1-benzhydryl-3-methylazetidin-3-yl)methoxy)-5-cyclopropyl-N-(ethylsulfonyl)-2-fluorobenzamide], the IC50 is 6.1 nM.

Regarding `C[C@@H]1CC[C@@H](Oc2cc(F)c(C(=O)NS(C)(=O)=O)cc2C2CC2)CN1Cc1ccc(F)cc1Cl` [Example 52], the IC50 is under 1.6 nM.

In the case of `CCS(=O)(=O)NC(=O)c1cc(C2CC2)c(OCC2CCN([C@H](C)c3ccc(Cl)cc3Cl)CC2)cc1F` [Example 284, (R)-5-cyclopropyl-4-((1-(1-(2,4-dichlorophenyl)ethyl)piperidin-4-yl)methoxy)-N-(ethylsulfonyl)-2-fluorobenzamide], the IC50 worked out at 3.6 nM.

Regarding `O=C(NS(=O)(=O)C1CC1)c1cc(C2CC2)c(OC[C@H]2CCCN(Cc3ccc(F)cc3Cl)C2)cc1F` [Example 340, (S)-4-((1-(2-chloro-4-fluorobenzyl)piperidin-3-yl)methoxy)-5-cyclopropyl-N-(cyclopropylsulfonyl)-2-fluorobenzamide, trifluoroacetic acid salt], the IC50 is 4.7 nM.

`CS(=O)(=O)NC(=O)c1cc(C2CC2)c(OCC2CCN(Cc3cc(C(F)(F)F)cc(Cl)c3F)CC2)cc1F` [Example 581, 4-((1-(3-chloro-2-fluoro-5-(trifluoromethyl)benzyl)piperidin-4-yl)methoxy)-5-cyclopropyl-2-fluoro-N-(methylsulfonyl)benzamide]: the IC50 is 3.8 nM.

In the case of `COC[C@@H](c1ccc(Cl)cc1Cl)N1CCC(COc2cc(F)c(C(=O)NS(C)(=O)=O)cc2C2CC2)CC1` [Example 283, (R)-5-cyclopropyl-4-((1-(1-(2,4-dichlorophenyl)-2-methoxyethyl)piperidin-4-yl)methoxy)-2-fluoro-N-(methylsulfonyl)benzamide], the IC50 turned out to be 4 nM.

For the compound `CS(=O)(=O)NC(=O)c1cc(C2CC2)c(OCC2CN(Cc3ccc(Cl)c(F)c3)C2)cc1F` [Example 133, 4-((1-(4-Chloro-3-fluorobenzyl)azetidin-3-yl)methoxy)-5-cyclopropyl-2-fluoro-N-(methylsulfonyl)benzamide], the IC50 amounted to 118 nM.

On to `CS(=O)(=O)NC(=O)c1cc(C2CC2)c(OCC2CCN(c3ccccc3)CC2)cc1F` [Example 79, 5-cyclopropyl-2-fluoro-N-(methylsulfonyl)-4-((1-phenylpiperidin-4-yl)methoxy)benzamide], for which the IC50 stood at 9.9 nM.

As to `CC(C)N(C(=O)CN1CCC(COc2cc(F)c(C(=O)NS(C)(=O)=O)cc2C2CC2)CC1)C(C)C` [Example 180, 5-Cyclopropyl-4-((1-(2-(diisopropylamino)-2-oxoethyl)piperidin-4-yl)methoxy)-2-fluoro-N-(methylsulfonyl)benzamide], the IC50 was 9900 nM.

For the compound `C[C@@H](c1ccc(F)cc1Cl)N1CCC[C@@H](Oc2cc(F)c(C(=O)NS(C)(=O)=O)cc2C2CC2)C1` [Example 295, 4-(((R)-1-((S)-1-(2-chloro-4-fluorophenyl)ethyl)piperidin-3-yl)oxy)-5-cyclopropyl-2-fluoro-N-(methylsulfonyl)benzamide], the IC50 worked out at 2.3 nM.

As for `CS(=O)(=O)NC(=O)c1cc(C2CC2)c(OCC2CCN([C@@H](c3cc(Cl)cc(Cl)c3)C(F)F)CC2)cc1F` (single isomer, unassigned) [Example 224], the IC50 amounted to 4.5 nM.

With `CS(=O)(=O)NC(=O)c1cc(C2CC2)c(OCC2CCN(Cc3cc(C(F)(F)F)ccc3Cl)CC2)cc1F` [Example 580, 4-((1-(2-chloro-5-(trifluoromethyl)benzyl)piperidin-4-yl)methoxy)-5-cyclopropyl-2-fluoro-N-(methylsulfonyl)benzamide], the IC50 is 3.7 nM.

In the case of `C[C@H](c1cc(Cl)cc(C(F)(F)F)c1)N1CCC(C)(COc2cc(F)c(C(=O)NS(C)(=O)=O)cc2C2CC2)CC1` (single isomer, unassigned) [Example 278], the IC50 was found to be 3.3 nM.

Regarding `CS(=O)(=O)NC(=O)c1cc(C2CC2)c(OCC2CN(C(c3ccccc3)c3ccc(Cl)c(Cl)c3)C2)cc1F` (centres unmarked) [Example 80, 5-Cyclopropyl-4-((1-((3,4-dichlorophenyl)(phenyl)methyl)azetidin-3-yl)methoxy)-2-fluoro-N-(methylsulfonyl)benzamide], the IC50 was 4.05 nM.

Consider `CCS(=O)(=O)NC(=O)c1cc(C2CC2)c(OCC2CCN([C@H](COC)c3ccc(Cl)cc3Cl)CC2)cc1F` [Example 286, (S)-5-cyclopropyl-4-((1-(1-(2,4-dichlorophenyl)-2-methoxyethyl)piperidin-4-yl)methoxy)-N-(ethylsulfonyl)-2-fluorobenzamide], for which the IC50 came out at 5.4 nM.

Consider `CC1(Oc2cc(C(F)(F)F)c(Cl)cn2)CCN(Cc2cc(F)c(C(=O)NS(=O)(=O)C3CC3)cc2C2CC2)CC1` [Example 472, 4-((4-((5-chloro-4-(trifluoromethyl)pyridin-2-yl)oxy)-4-methylpiperidin-1-yl)methyl)-5-cyclopropyl-N-(cyclopropylsulfonyl)-2-fluorobenzamide, trifluoroacetic acid salt], for which the IC50 turned out to be 3.6 nM.
